Test results published in patent US20070093520A1, “Method of treatment of diarrhea-predominant irritable bowel syndrome in a subject” (priority 2005, published 2007).

What was measured:
[1] = system: diarrhea-predominant IBS subjects; experiment: 3007 Study: 12-lead ECG abnormalities; format: in vivo, human; conditions: Study 3007
Description: Resting 12-lead ECGs were performed at Day 1 (Visit 5 of the core protocol), Months 1, 6, and 12 (end of study or early termination visit). A centralized ECG service was used to evaluate all ECG tracings to supply consistent standardized ECG interpretation.
All analyses and summaries for ECG assessments were based on the evaluation performed in the central ECG laboratory.
For Study 3007, “baseline’ was defined as the pre-treatment period of core Study 3006 for subjects randomized to the cilansetron treatment group in Study 3006 and as the last post-Baseline visit of Study 3006 (normally Visit 5) for subjects randomized to the placebo group in Study 3006. The by-timepoint analyses were based on timepoints defined in Section 5.7.1.2.
Summary statistics are presented for PR, QRS, QT, and QTc intervals (Bazett and Fridericia formulas) and heart rate at each visit and at Endpoint, as well as for change from Baseline results at each post-Baseline visit and at Endpoint. Bazett's and Fridericia's QTc intervals were calculated based on the following formulas: Bazett: QTc intervals=QT/√RR Fridericia: QTc intervals=QT/^3√RR
Markedly abnormal ECG parameter values collected after the first dose of study medication and within 30 days of the last dose of study medication were summarized overall. The following criteria were applied to identify markedly abnormal parameter values: • PR ≧0.210 sec; • QRS ≧0.120 sec; • QTc >0.440 sec;
Heart rate ≧120 bpm or ≦50 bpm or change of ≧15 bpm.
The determination of markedly abnormal for QTc was carried out separately for both the Bazett correction and the Fridericia correction.
The incidence of treatment-emergent ECG abnormalities is presented overall and by type of abnormality. A treatment-emergent ECG abnormality was an abnormality identified by the ECG core laboratory that was not present at baseline (e.g., prior to the entry into core Study 3006), and was observed on or after initiation of study medication and up to 30 days after discontinuation of study medication. The incidence of treatment-emergent ECG abnormalities is presented by time interval, as well as overall for the entire treatment period. The incidence of treatment-emergent abnormalities is also presented in more general categories (e.g., presenting incidence of treatment-emergent myocardial infarction overall as well as by location), depending on whether it mitigates the interpretation.
The overall incidence of marked abnormalities for ECG parameters is presented overall by gender and overall.

[2] = system: non-constipated IBS subjects; experiment: Phase II clinical trial Study S241.2.113, adequate relief of IBS symptoms; format: in vivo, human; conditions: 2 mg TID

Cc1nccn1C[C@H]1CCc2c(c3cccc4c3n2CCC4)C1=O [cilansetron, (R)-(−)-4,5,6,8,9,10-hexahydro-10-[(2-methyl-1H-imidazol-1-yl)methyl]-11H-pyrido-[3,2,1-jk]-carbazol-11-one]
marked ECG abnormality: decreased heart rate ([1]; female subjects): 6% | marked ECG abnormality: prolonged QTc(B) ([1]; female subjects): 23% | marked ECG abnormality: prolonged QTc(F) ([1]; female subjects): 10% | treatment-emergent ECG abnormality: early repolarization-normal variant ([1]; female subjects): 2% | treatment-emergent ECG abnormality: poor R-wave progression ([1]; female subjects): 13% | treatment-emergent ECG abnormality: sinus arrhythmia ([1]; female subjects): 19% | marked ECG abnormality: decreased heart rate ([1]; male subjects): 13% | marked ECG abnormality: prolonged QTc(B) ([1]; male subjects): 6% | marked ECG abnormality: prolonged QTc(F) ([1]; male subjects): 3% | treatment-emergent ECG abnormality: early repolarization-normal variant ([1]; male subjects): 19% | treatment-emergent ECG abnormality: poor R-wave progression ([1]; male subjects): 6% | treatment-emergent ECG abnormality: sinus arrhythmia ([1]; male subjects): 25% | incidence of prolonged QT interval ([1]; overall): 4% | marked ECG abnormality: heart rate decrease ([1]; overall): 14% | marked ECG abnormality: heart rate increase ([1]; overall): 15% | marked ECG abnormality: prolonged QTc(B) ([1]; overall): 17% | subjects with a post-Baseline marked ECG abnormality ([1]; overall): 50% | subjects with a treatment-emergent ECG abnormality ([1]; overall): 62% | treatment-emergent ECG abnormality: borderline LA enlargement ([1]; overall): 6% | treatment-emergent ECG abnormality: early R-wave transition ([1]; overall): 6% | treatment-emergent ECG abnormality: early repolarization-normal variant ([1]; overall): 8% | treatment-emergent ECG abnormality: non-specific T-wave changes ([1]; overall): 7% | treatment-emergent ECG abnormality: poor R-wave progression ([1]; overall): 11% | treatment-emergent ECG abnormality: sinus arrhythmia ([1]; overall): 21% | treatment-emergent ECG abnormality: sinus bradycardia ([1]; overall): 10% | adequate relief of IBS symptoms versus placebo [2]: superior to placebo
